Article PMC11785708, “Design and synthesis of new quinazolinone derivatives: investigation of antimicrobial and biofilm inhibition effects” (Molecular Diversity, 2024)
Converted amounts (≈) assume the structure as drawn.

Assays:
K. pneumoniae ATCC 13883 [1] = experiment: Agar well diffusion, K. pneumoniae; assay type: cell-based; conditions: Klebsiella pneumoniae, ATCC13883; 100 μl of test compound 20 mg/ml in DMF; ciprofloxacin and fluconazole 30 μg/ml; 24 h; mean ± SD; read-out: diameters of inhibition zone, K. pneumoniae ATCC 13883
Description: (§1) The antimicrobial activity was tested against Gram positive bacteria: Bacillus cereus (B. cereus ATCC 6629), Bacillus subtilis (B. subtilis ATCC 6633), Staphylococcus aureus (S. aureus ATCC 6538), Gram negative bacteria: Klebsiella pneumoniae (K. pneumoniae ATCC 13883), Pseudomonas aeruginosa (P. aeruginosa ATCC 27953) and Candida albicans (C. albicans ATCC 10231). Glycerol stocks were thawed upon need and propagated into nutrient broth at 37 °C. The antibacterial activity of the compounds 9-32 was carried out in vitro using the agar well diffusion method, originally reported by […] and Bauer and coworkers and described by the National Committee for Clinical Laboratory Standards (NCCLS). Bacterial strains, adjusted at […] (equivalent to 0.5 McFarland), were used to inoculate nutrient agar plates. 9-mm diameter wells were punched into the solidified nutrient agar plates using sterile cork borer and 100 μl samples of the test compounds, dissolved in dimethyl formamide (DMF) at 20 mg/ml concentrations, were added and allowed to diffuse at 4 °C for 2 h. Subsequently, the plates were incubated overnight in an upright position at 37 °C. DMF was used as a negative control while ciprofloxacin and fluconazole (30 μg/ml) served as positive controls. After 24 h incubation, the diameters of the growth inhibition zones were recorded in mm. Data was expressed as mean ± standard deviation of three replicates.

P. aeruginosa ATCC 27953 [2] = experiment: Agar well diffusion, P. aeruginosa; assay type: cell-based; conditions: Pseudomonas aeruginosa, ATCC27953; 100 μl of test compound 20 mg/ml in DMF; ciprofloxacin and fluconazole 30 μg/ml; 24 h; mean ± SD; read-out: diameters of inhibition zone, P. aeruginosa ATCC 27953
Description: as §1

C. albicans ATCC 10231 [3] = experiment: Agar well diffusion, C. albicans; assay type: cell-based; conditions: Candida albicans, ATCC10231; 100 μl of test compound 20 mg/ml in DMF; ciprofloxacin and fluconazole 30 μg/ml; 24 h; mean ± SD; read-out: diameters of inhibition zone, C. albicans ATCC 10231
Description: as §1

B. subtilis ATCC 6633 [4] = experiment: Agar well diffusion, B. subtilis; assay type: cell-based; conditions: Bacillus subtilis, ATCC6633; 100 μl of test compound 20 mg/ml in DMF; ciprofloxacin and fluconazole 30 μg/ml; 24 h; mean ± SD; read-out: diameters of inhibition zone, B. subtilis ATCC 6633
Description: as §1

B. subtilis ATCC 6633 [5] = experiment: MIC determination, B. subtilis; assay type: cell-based, Bacillus subtilis; conditions: serial dilutions, triplicate; for MIC: Bacillus subtilis, ATCC6633
Description: (§2) Serial dilutions of the test compounds were tested to determine their MIC against the most susceptible organisms. The MIC was expressed as the lowest concentration which inhibited the visible growth of the corresponding microorganism. All assays were performed in triplicate.

K. pneumoniae ATCC 13883 [6] = experiment: MIC determination, K. pneumoniae; assay type: cell-based, Klebsiella pneumoniae; conditions: serial dilutions, triplicate; for MIC: Klebsiella pneumoniae, ATCC13883
Description: as §2

P. aeruginosa ATCC 27953 [7] = experiment: MIC determination, P. aeruginosa; assay type: cell-based, Pseudomonas aeruginosa; conditions: serial dilutions, triplicate; for MIC: Pseudomonas aeruginosa, ATCC27953
Description: as §2

C. albicans ATCC 10231 [8] = experiment: MIC determination, C. albicans; assay type: cell-based, Candida albicans; conditions: serial dilutions, triplicate
Description: as §2

Cell viability MTT assay = assay type: cell-based; conditions: human, BJ1 cells (normal skin fibroblasts)
Description: Cell viability testing at 5 mg/ml was carried out by colorimetric MTT assay on human normal cell line BJ1 (skin fibroblasts) to investigate the toxicity of the most broad spectrum derivatives 9, 15, 16, 18, 19, 20 and 29 (Table 3). The viability of the cells treated with the aforementioned derivatives was more than 87% at 5 mg/ml concentration. This gives indication that the compounds are tolerated and nontoxic for human cells, as the cytotoxic dose was higher than the therapeutic dose on most of microorganisms. It is worth mentioning that the safe limit of the percent of dead cells is not an absolute value and could be more than 10% as reported in previous studies.
The most broad spectrum compounds were evaluated for their cytotoxic activity against BJ1 cell line using colorimetric MTT [3-(4,5-dimethylthiazol-2-yl)-2,5-diphenyltetrazolium bromide] assay.

B. cereus ATCC 6629 [9] = experiment: Agar well diffusion, B. cereus; assay type: cell-based; conditions: Bacillus cereus, ATCC6629; 100 μl of test compound 20 mg/ml in DMF; ciprofloxacin and fluconazole 30 μg/ml; 24 h; mean ± SD; read-out: diameters of inhibition zone, B. cereus ATCC 6629
Description: as §1

B. cereus ATCC 6629 [10] = experiment: MIC determination, B. cereus; assay type: cell-based, Bacillus cereus; conditions: serial dilutions, triplicate
Description: as §2

S. aureus ATCC 6538 = experiment: Agar well diffusion, S. aureus; assay type: cell-based; conditions: Staphylococcus aureus, ATCC6538; 100 μl of test compound 20 mg/ml in DMF; ciprofloxacin and fluconazole 30 μg/ml; 24 h; mean ± SD; read-out: diameters of inhibition zone, S. aureus ATCC 6538
Description: as §1

melting point	Structure (SMILES)	zone of inhibition at 20000 µg/mL (K. pneumoniae ATCC 13883 [1])	zone of inhibition at 20000 µg/mL (P. aeruginosa ATCC 27953 [2])	zone of inhibition at 20000 µg/mL (C. albicans ATCC 10231 [3])	zone of inhibition at 20000 µg/mL (B. subtilis ATCC 6633 [4])	other results
116 °C	CCN(CC)Cc1nc2ccccc2c(=O)n1N=Cc1cc(OC)c(OC)c(OC)c1 [Compound 13, 2-[(Diethylamino)methyl]-3-[(3,4,5-trimethoxybenzylidene)amino]quinazolin-4(3H)-one]	12 ± 0.07 mm	20 ± 0.18 mm	12 ± 0.28 mm		
112 to 114 °C	COc1cc(C=Nn2c(CN3CCCCC3)nc3ccccc3c2=O)cc(OC)c1OC [Compound 25, 2-(Piperidin-1-ylmethyl)-3-[(3,4,5-trimethoxybenzylidene)amino]quinazolin-4(3H)-one]	14 ± 0.17 mm	21 ± 0.17 mm			
200 °C	O=c1c2ccccc2nc(CN2CCOCC2)n1N=Cc1ccc([N+](=O)[O-])cc1 [Compound 32, 2-(Morpholinomethyl)-3-[(4-nitrobenzylidene)amino]quinazolin-4(3H)-one]		18 ± 0.09 mm		14 ± 0.27 mm	
74 °C	CCN(CC)Cc1nc2ccccc2c(=O)n1N=Cc1ccc(C)cc1 [Compound 11, 2-[(Diethylamino)methyl]-3-[(4-methylbenzylidene)amino]quinazolin-4(3H)-one]				14 ± 0.16 mm	
180 to 182 °C	O=c1c2ccccc2nc(CN2CCCCC2)n1N=Cc1ccc([N+](=O)[O-])cc1 [Compound 26]	11 ± 0.07 mm			12 ± 0.11 mm	
	OC(Cn1cncn1)(Cn1cncn1)c1ccc(F)cc1F [Fluconazole, reference compound]			20 ± 0.18 mm		
132 °C	O=c1c2ccccc2nc(CN2CCOCC2)n1N=Cc1ccccc1 [Compound 27, 3-(Benzylideneamino)-2-(morpholinomethyl)quinazolin-4(3H)-one]	14 ± 0.16 mm		13 ± 0.09 mm	14 ± 0.15 mm	
138 °C	COc1ccc(C=Nn2c(CN3CCCCC3)nc3ccccc3c2=O)cc1 [Compound 24, 3-[(4-Methoxylbenzylidene)amino]-2-(piperidin-1-ylmethyl)quinazolin-4(3H)-one]	12 ± 0.14 mm	14 ± 0.21 mm			
130 °C	O=c1c2ccccc2nc(CN2CCCCC2)n1N=Cc1ccc(Cl)cc1 [Compound 22, 3-[(4-Chlorobenzylidene)amino]-2-(piperidin-1-ylmethyl)quinazolin-4(3H)-one]				10 ± 0.07 mm	
128 °C	Cc1ccc(C=Nn2c(CN3CCOCC3)nc3ccccc3c2=O)cc1 [Compound 29, 3-[(4-Methylbenzylidene)amino]-2-(morpholinomethyl)quinazolin-4(3H)-one]	20 ± 0.15 mm	14 ± 0.16 mm	13 ± 0.07 mm	14 ± 0.06 mm	MIC (B. subtilis ATCC 6633 [5]): 500 µg/mL (≈ 1.38 mM); MIC, B. subtilis ATCC 6633 (B. subtilis ATCC 6633 [5]): 500 ± 60 µg/mL (≈ 1.38 mM); MIC (K. pneumoniae ATCC 13883 [6]): 2500 µg/mL (≈ 6.9 mM); MIC, K. pneumoniae ATCC 13883 (K. pneumoniae ATCC 13883 [6]): 2500 ± 500 µg/mL (≈ 6.9 mM); MIC (P. aeruginosa ATCC 27953 [7]): 1500 µg/mL (≈ 4.14 mM); MIC (C. albicans ATCC 10231 [8]; Candida albicans, ATCC10231): 5000 µg/mL (≈ 13.8 mM); MIC, C. albicans ATCC 10231 (C. albicans ATCC 10231 [8]): 5000 ± 290 µg/mL (≈ 13.8 mM); viability at 5 mg/ml (Cell viability MTT assay): 87.6 ± 3.61%
98 °C	O=c1c2ccccc2nc(CN2CCCCC2)n1N=Cc1ccccc1 [Compound 21, 3-(Benzylideneamino)-2-(piperidin-1-ylmethyl)quinazolin-4(3H)-one]	12 ± 0.15 mm			17 ± 0.14 mm	zone of inhibition at 20000 µg/mL (B. cereus ATCC 6629 [9]): 12 ± 0.16 mm
140 to 142 °C	O=c1c2ccccc2nc(CN2CCOCC2)n1N=Cc1ccc(Cl)cc1 [Compound 28, 3-[(4-Chlorobenzylidene)amino]-2-(morpholinomethyl)quinazolin-4(3H)-one]	16 ± 0.18 mm			12 ± 0.2 mm	
102 to 104 °C	CCN(CC)Cc1nc2ccccc2c(=O)n1N=Cc1ccc(OC)cc1 [Compound 12, 2-[(Diethylamino)methyl]-3-[(4-methoxybenzylidene)amino]quinazolin-4(3H)-one]		18 ± 0.27 mm			
156 °C	Cc1ccc(C=Nn2c(CN3CCCC3)nc3ccccc3c2=O)cc1 [Compound 17, 3-[(4-Methylbenzylidene)amino]-2-(pyrrolidin-1-ylmethyl)quinazolin-4(3H)-one]		16 ± 0.22 mm			
78 °C	CCN(CC)Cc1nc2ccccc2c(=O)n1N=Cc1ccccc1 [Compound 9, 3-(Benzylideneamino)-2-[(diethylamino)methyl]quinazolin-4(3H)-one]	12 ± 0.17 mm	21 ± 0.36 mm		15 ± 0.25 mm	zone of inhibition at 20000 µg/mL (B. cereus ATCC 6629 [9]): 14 ± 0.09 mm; MIC (B. subtilis ATCC 6633 [5]): 2000 µg/mL (≈ 5.98 mM); MIC (B. cereus ATCC 6629 [10]; Bacillus cereus, ATCC6629): 1000 µg/mL (≈ 2.99 mM); MIC, B. cereus ATCC 6629 (B. cereus ATCC 6629 [10]): 1000 ± 0 µg/mL (≈ 2.99 mM); MIC (K. pneumoniae ATCC 13883 [6]): 1500 ± 60 µg/mL (≈ 4.49 mM); MIC (P. aeruginosa ATCC 27953 [7]): 2000 µg/mL (≈ 5.98 mM); MIC, P. aeruginosa ATCC 27953 (P. aeruginosa ATCC 27953 [7]): 2000 ± 290 µg/mL (≈ 5.98 mM); viability at 5 mg/ml (Cell viability MTT assay): 91.5 ± 2.21%
138 °C	COc1ccc(C=Nn2c(CN3CCOCC3)nc3ccccc3c2=O)cc1 [Compound 30, 3-[(4-Methoxylbenzylidene)amino]-2-(morpholinomethyl)quinazolin-4(3H)-one]	14 ± 0.15 mm				zone of inhibition at 20000 µg/mL (S. aureus ATCC 6538): 12 ± 0.12 mm
124 °C	CCN(CC)Cc1nc2ccccc2c(=O)n1N=Cc1ccc(Cl)cc1 [Compound 10, 3-[(4-Chlorobenzylidene)amino]-2-[(diethylamino)methyl]quinazolin-4(3H)-one]	15 ± 0.15 mm				
124 °C	Cc1ccc(C=Nn2c(CN3CCCCC3)nc3ccccc3c2=O)cc1 [Compound 23, 3-[(4-Methylbenzylidene)amino]-2-(piperidin-1-ylmethyl)quinazolin-4(3H)-one]			11 ± 0.13 mm		
155 °C	COc1cc(C=Nn2c(CN3CCOCC3)nc3ccccc3c2=O)cc(OC)c1OC [Compound 31, 2-(Morpholinomethyl)-3-[(3,4,5-trimethoxybenzylidene)amino]quinazolin-4(3H)-one]					
155 °C	CCN(CC)Cc1nc2ccccc2c(=O)n1N=Cc1ccc([N+](=O)[O-])cc1 [Compound 14, 2-[(Diethylamino)methyl]-3-[(4-nitrobenzylidene)amino]quinazolin-4(3H)-one]			12 ± 0.37 mm		
